Ki data for 2 compounds are collected here from ChEMBL document CHEMBL1141203, “Transforming bivalent ligands into retractable enzyme inhibitors through polypeptide-protein interactions” (Bioorg Med Chem Lett, 2005).

The test deals with Prothrombin (Homo sapiens, UniProt P00734). The experiment in a line: Inhibitory activity against human thrombin by amidolytic assay using chromogenic S-2238 substrate. The class given is functional.

In general, Ki refers to a dissociation constant, usually derived from enzyme kinetics or from competition with a known ligand. `CC[C@H](C)C[C@H](NC(=O)[C@H](CC(C)C)NC(=O)[C@H](CCCCN)NC(=O)[C@H](CCC(N)=O)NC(=O)[C@H](CCC(=O)O)NC(=O)CNC(=O)[C@H]1CCCCN1C(=O)[C@H](CCCN=C(N)N)NS(=O)(=O)c1ccc(C(C)(C)C)cc1)C(=O)N[C@@H](CO)C(=O)N[C@@H](CCC(=O)O)C(=O)N[C@@H](CCC(=O)O)C(=O)N[C@@H](CC(=O)O)C(=O)N[C@@H](CC(C)C)C(=O)NCC(=O)N[C@@H](CC(=O)O)C(=O)N[C@@H](Cc1ccccc1)C(=O)N[C@@H](CCC(=O)O)C(=O)N[C@@H](CCC(=O)O)C(=O)N[C@H](C(=O)N1CCC[C@H]1C(=O)N[C@@H](CCC(=O)O)C(=O)N[C@@H](CCC(=O)O)C(=O)N[C@@H](Cc1ccc(O)cc1)C(=O)N[C@@H](CC(C)C)C(=O)N[C@@H](CCC(N)=O)C(=O)O)[C@@H](C)CC` showed an inhibition constant (Ki) of 66 nM.

`CC[C@H](C)[C@H](NC(=O)[C@H](CCC(=O)O)NC(=O)[C@H](CCC(=O)O)NC(=O)[C@H](Cc1ccccc1)NC(=O)[C@H](CC(=O)O)NC(=O)CNC(=O)[C@H](CO)NC(=O)CNC(=O)[C@H](CO)NC(=O)CNC(=O)[C@H]1CCCCN1C(=O)[C@H](CCCN=C(N)N)NS(=O)(=O)c1ccc(C(C)(C)C)cc1)C(=O)N1CCC[C@H]1C(=O)N[C@@H](CCC(=O)O)C(=O)N[C@@H](CCC(=O)O)C(=O)N[C@@H](Cc1ccc(O)cc1)C(=O)N[C@@H](CC(C)C)C(=O)N[C@@H](CCC(N)=O)C(=O)O` returned an inhibition constant (Ki) of 36 nM.
